From US12723063B2, “GIPR-agonist compounds” (Eli Lilly and Company, priority 2019, dated 2026)
*1 amine or outer side, *2 acyl side, *3 side chain or, on linkers, in order; H or OH if unused. Where a SMILES comes first, the peptide text is derived from it. Side-chain parts run from the residue outwards. [ ]: non-standard residue; d: D form. The star is where a group is joined. C20 diacid = O=C(O)CCCCCCCCCCCCCCCCCCC(=O)*; C18 diacid = O=C(O)CCCCCCCCCCCCCCCCC(=O)*; αMePhe(2-F) = C[C@](N)(Cc1ccccc1F)C(=O)O; γGlu = O=C(O)[C@H](CCC(=O)[*:2])N[*:1]; αMeY = C[C@](N)(Cc1ccc(O)cc1)C(=O)O; 4Pal = N[C@@H](Cc1ccncc1)C(=O)O; αMeL = CC(C)C[C@](C)(N)C(=O)O; Iva = CC[C@](C)(N)C(=O)O; Orn = NCCC[C@H](N)C(=O)O; AEEA = NCCOCCOCC(=O)O; Aib = CC(C)(N)C(=O)O

Legend:
Assay in all cases: cAMP functional assay (HTRF) in HEK293 cells in presence of 0.1% casein
Assay type in all cases: cell-based
[1] = biological target: T1, human glucagon receptor (GcgR) (Homo sapiens, UniProt P47871); conditions: HEK293 cells expressing human GcgR, geometric mean, read-out: hGcgR cAMP Rel EC50 nM (SEM, n)
T1 construct: expressed in transfected cells; host or cells: HEK293

[2] = biological target: T2, human GLP-1 receptor (GLP-1R) (Homo sapiens, UniProt P43220); conditions: HEK293 cells expressing human GLP-1R, geometric mean, read-out: hGLP1R cAMP Rel EC50 nM (SEM, n)
T2 construct: expressed in transfected cells; host or cells: HEK293

[3] = biological target: T3, human glucose-dependent insulinotropic peptide receptor (GIPR) (Homo sapiens, UniProt P48546); conditions: HEK293 cells expressing human GIPR, geometric mean, read-out: hGIPR cAMP Rel EC50 nM (SEM, n)
T3 construct: expressed in transfected cells; host or cells: HEK293
T3 sequence (P48546 22-466): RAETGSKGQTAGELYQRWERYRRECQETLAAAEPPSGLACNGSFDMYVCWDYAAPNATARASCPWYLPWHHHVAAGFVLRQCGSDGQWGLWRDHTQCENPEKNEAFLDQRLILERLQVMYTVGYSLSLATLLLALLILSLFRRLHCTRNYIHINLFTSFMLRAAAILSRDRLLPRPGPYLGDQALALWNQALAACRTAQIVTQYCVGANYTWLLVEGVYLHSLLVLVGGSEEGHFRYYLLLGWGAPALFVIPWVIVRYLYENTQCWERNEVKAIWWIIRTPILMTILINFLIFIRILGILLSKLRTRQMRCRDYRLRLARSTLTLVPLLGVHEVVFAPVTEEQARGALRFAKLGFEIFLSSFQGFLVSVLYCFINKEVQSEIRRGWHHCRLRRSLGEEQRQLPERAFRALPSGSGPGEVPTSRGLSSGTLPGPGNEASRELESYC

T2 sequence (P43220 24-463): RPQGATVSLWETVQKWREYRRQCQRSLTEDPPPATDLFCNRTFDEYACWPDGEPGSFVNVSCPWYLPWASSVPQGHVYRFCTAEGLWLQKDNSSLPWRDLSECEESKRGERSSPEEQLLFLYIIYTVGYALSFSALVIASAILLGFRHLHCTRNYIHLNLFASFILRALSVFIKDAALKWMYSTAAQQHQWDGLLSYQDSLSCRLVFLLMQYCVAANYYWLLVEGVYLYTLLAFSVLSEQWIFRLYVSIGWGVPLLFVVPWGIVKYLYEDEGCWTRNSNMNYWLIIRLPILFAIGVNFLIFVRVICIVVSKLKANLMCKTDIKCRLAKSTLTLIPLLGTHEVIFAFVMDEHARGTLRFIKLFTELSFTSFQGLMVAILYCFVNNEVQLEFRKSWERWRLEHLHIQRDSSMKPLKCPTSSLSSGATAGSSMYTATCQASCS
T1 sequence (P47871 26-477): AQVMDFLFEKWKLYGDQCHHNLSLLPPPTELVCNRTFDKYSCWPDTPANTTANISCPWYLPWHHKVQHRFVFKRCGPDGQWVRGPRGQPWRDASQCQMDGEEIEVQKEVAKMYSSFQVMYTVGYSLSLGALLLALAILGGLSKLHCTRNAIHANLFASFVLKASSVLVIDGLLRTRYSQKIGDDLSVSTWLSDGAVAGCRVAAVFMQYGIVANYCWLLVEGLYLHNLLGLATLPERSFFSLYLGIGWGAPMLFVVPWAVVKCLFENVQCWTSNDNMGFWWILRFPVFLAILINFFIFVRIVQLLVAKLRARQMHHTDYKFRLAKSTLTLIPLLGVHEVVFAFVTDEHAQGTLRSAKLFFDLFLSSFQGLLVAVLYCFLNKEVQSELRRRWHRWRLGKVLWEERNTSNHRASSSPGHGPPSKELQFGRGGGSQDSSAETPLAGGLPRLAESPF

Structure (SMILES)	EC50 [1] [nM]	EC50 [2] [nM]	EC50 [3] [nM]
CC[C@H](C)[C@H](NC(=O)[C@H](Cc1ccccc1)NC(=O)[C@@H](NC(=O)CNC(=O)[C@H](CCC(=O)O)NC(=O)C(C)(C)NC(=O)[C@@H](N)Cc1ccc(O)cc1)[C@@H](C)O)C(=O)N[C@@H](CO)C(=O)N[C@@H](CC(=O)O)C(=O)N[C@@H](Cc1ccc(O)cc1)C(=O)N[C@@H](CO)C(=O)N[C@H](C(=O)N[C@@](C)(CC(C)C)C(=O)N[C@@H](CC(C)C)C(=O)N[C@@H](CC(=O)O)C(=O)N[C@@H](CCCCN)C(=O)N[C@@H](CCCCNC(=O)COCCOCCNC(=O)COCCOCCNC(=O)CC[C@H](NC(=O)CCCCCCCCCCCCCCCCCCC(=O)O)C(=O)O)C(=O)N[C@@H](Cc1c[nH]cn1)C(=O)N[C@@H](CCC(N)=O)C(=O)NC(C)(C)C(=O)N[C@@H](CC(=O)O)C(=O)N[C@@H](Cc1ccccc1)C(=O)N[C@H](C(=O)N[C@@H](CCC(=O)O)C(=O)N[C@@](C)(Cc1ccc(O)cc1)C(=O)N[C@@H](CC(C)C)C(=O)N[C@@H](CC(C)C)C(=O)N[C@@H](CCC(=O)O)C(=O)NCC(=O)NCC(=O)N1CCC[C@H]1C(=O)N[C@@H](CO)C(=O)N[C@@H](CO)C(=O)NCC(=O)N[C@@H](C)C(=O)N1CCC[C@H]1C(=O)N1CCC[C@H]1C(=O)N1CCC[C@H]1C(=O)N[C@@H](CO)C(N)=O)C(C)C)[C@@H](C)CC [Example 91] (H-Y[Aib]EGTFISDYSI[αMeL]LDKK([AEEA-AEEA-γGlu-C20 diacid])HQ[Aib]DFVE[αMeY]LLEGGPSSGAPPPS-NH2)	289	530	0.0321
CC[C@H](C)[C@H](NC(=O)[C@H](CCCN)NC(=O)[C@H](CC(=O)O)NC(=O)[C@H](CC(C)C)NC(=O)[C@](C)(CC(C)C)NC(=O)[C@@H](NC(=O)[C@H](CO)NC(=O)[C@H](Cc1ccc(O)cc1)NC(=O)[C@H](CC(=O)O)NC(=O)[C@H](CO)NC(=O)[C@@H](NC(=O)[C@H](Cc1ccccc1)NC(=O)[C@@H](NC(=O)CNC(=O)[C@H](CCC(=O)O)NC(=O)C(C)(C)NC(=O)[C@@H](N)Cc1ccc(O)cc1)[C@@H](C)O)[C@@H](C)CC)[C@@H](C)CC)C(=O)N[C@@H](Cc1c[nH]cn1)C(=O)N[C@@H](CCC(N)=O)C(=O)NC(C)(C)C(=O)N[C@@H](CC(=O)O)C(=O)N[C@@H](Cc1ccccc1)C(=O)N[C@H](C(=O)N[C@@H](CCC(=O)O)C(=O)N[C@@H](Cc1ccc(O)cc1)C(=O)N[C@@H](CCCCNC(=O)COCCOCCNC(=O)COCCOCCNC(=O)CC[C@H](NC(=O)CCCCCCCCCCCCCCCCC(=O)O)C(=O)O)C(=O)N[C@@H](CC(C)C)C(=O)N[C@@H](CCC(=O)O)C(=O)NCC(=O)NCC(=O)N1CCC[C@H]1C(=O)N[C@@H](CO)C(=O)N[C@@H](CO)C(=O)NCC(=O)N[C@@H](C)C(=O)N1CCC[C@H]1C(=O)N1CCC[C@H]1C(=O)N1CCC[C@H]1C(=O)N[C@@H](CO)C(N)=O)C(C)C [Example 103] (H-Y[Aib]EGTFISDYSI[αMeL]LD[Orn]IHQ[Aib]DFVEYK([AEEA-AEEA-γGlu-C18 diacid])LEGGPSSGAPPPS-NH2)	> 5000	> 5000	0.0129
CC[C@H](C)[C@H](NC(=O)[C@H](CO)NC(=O)[C@H](Cc1ccc(O)cc1)NC(=O)[C@H](CC(=O)O)NC(=O)[C@H](CO)NC(=O)[C@@H](NC(=O)[C@](C)(Cc1ccccc1F)NC(=O)[C@@H](NC(=O)CNC(=O)[C@H](CCC(=O)O)NC(=O)C(C)(C)NC(=O)[C@@H](N)Cc1ccc(O)cc1)[C@@H](C)O)[C@@H](C)CC)C(=O)N[C@@H](C)C(=O)N[C@@H](CC(C)C)C(=O)N[C@@H](CC(=O)O)C(=O)N[C@@H](CCCCN)C(=O)N[C@H](C(=O)N[C@@H](Cc1c[nH]cn1)C(=O)N[C@@H](CCC(N)=O)C(=O)NC(C)(C)C(=O)N[C@@H](CCC(=O)O)C(=O)N[C@@H](Cc1ccccc1)C(=O)N[C@H](C(=O)N[C@@H](CC(N)=O)C(=O)N[C@@H](Cc1ccc(O)cc1)C(=O)N[C@@H](CCCCNC(=O)COCCOCCNC(=O)COCCOCCNC(=O)CC[C@H](NC(=O)CCCCCCCCCCCCCCCCCCC(=O)O)C(=O)O)C(=O)N[C@@H](CC(C)C)C(=O)N[C@@H](CCC(=O)O)C(=O)NCC(=O)NCC(=O)N1CCC[C@H]1C(=O)N[C@@H](CO)C(=O)N[C@@H](CO)C(=O)NCC(=O)N[C@@H](C)C(=O)N1CCC[C@H]1C(=O)N1CCC[C@H]1C(=O)N1CCC[C@H]1C(=O)N[C@@H](CO)C(N)=O)C(C)C)[C@@H](C)CC [Example 95] (H-Y[Aib]EGT[αMePhe(2-F)]ISDYSIALDKIHQ[Aib]EFVNYK([AEEA-AEEA-γGlu-C20 diacid])LEGGPSSGAPPPS-NH2)	> 5000	> 5000	0.0272
CC[C@H](C)[C@H](NC(=O)[C@H](CO)NC(=O)[C@H](Cc1ccc(O)cc1)NC(=O)[C@H](CC(=O)O)NC(=O)[C@H](CO)NC(=O)[C@@H](NC(=O)[C@](C)(CC)NC(=O)[C@@H](NC(=O)CNC(=O)[C@H](CCC(=O)O)NC(=O)C(C)(C)NC(=O)[C@@H](N)Cc1ccc(O)cc1)[C@@H](C)O)[C@@H](C)CC)C(=O)N[C@@](C)(CC(C)C)C(=O)N[C@@H](CC(C)C)C(=O)N[C@@H](CC(=O)O)C(=O)N[C@@H](CCCCN)C(=O)N[C@@H](CCCCNC(=O)COCCOCCNC(=O)COCCOCCNC(=O)CC[C@H](NC(=O)CCCCCCCCCCCCCCCCCCC(=O)O)C(=O)O)C(=O)N[C@@H](Cc1c[nH]cn1)C(=O)N[C@@H](CCC(N)=O)C(=O)NC(C)(C)C(=O)N[C@@H](CC(=O)O)C(=O)N[C@@H](Cc1ccccc1)C(=O)N[C@H](C(=O)N[C@@H](CCC(=O)O)C(=O)N[C@@H](Cc1ccncc1)C(=O)N[C@@H](CC(C)C)C(=O)N[C@@H](CC(C)C)C(=O)N[C@@H](CCC(=O)O)C(=O)N[C@H](C(=O)NCC(=O)N1CCC[C@H]1C(=O)N[C@@H](CO)C(=O)N[C@@H](CO)C(=O)NCC(=O)N[C@@H](C)C(=O)N1CCC[C@H]1C(=O)N1CCC[C@H]1C(=O)N1CCC[C@H]1C(=O)N[C@@H](CO)C(N)=O)[C@@H](C)O)C(C)C [Example 75] (H-Y[Aib]EGT[Iva]ISDYSI[αMeL]LDKK([AEEA-AEEA-γGlu-C20 diacid])HQ[Aib]DFVE[4Pal]LLETGPSSGAPPPS-NH2)	2170	> 5000	0.0182
CC[C@H](C)[C@H](NC(=O)[C@H](CO)NC(=O)[C@H](Cc1ccc(O)cc1)NC(=O)[C@H](CC(=O)O)NC(=O)[C@H](CO)NC(=O)[C@@H](NC(=O)[C@H](Cc1ccccc1)NC(=O)[C@@H](NC(=O)CNC(=O)[C@H](CCC(=O)O)NC(=O)[C@@H](C)NC(=O)[C@@H](N)Cc1ccc(O)cc1)[C@@H](C)O)[C@@H](C)CC)C(=O)N[C@@H](CC(C)C)C(=O)N[C@@H](CC(C)C)C(=O)N[C@@H](CC(=O)O)C(=O)N[C@@H](CCCCN)C(=O)N[C@@H](CCCCNC(=O)COCCOCCNC(=O)COCCOCCNC(=O)CC[C@H](NC(=O)CCCCCCCCCCCCCCCCC(=O)O)C(=O)O)C(=O)N[C@@H](C)C(=O)N[C@@H](CCC(N)=O)C(=O)NC(C)(C)C(=O)N[C@@H](CC(=O)O)C(=O)N[C@@H](Cc1ccccc1)C(=O)N[C@H](C(=O)N[C@@H](CC(N)=O)C(=O)N[C@@H](Cc1c[nH]c2ccccc12)C(=O)N[C@@H](CC(C)C)C(=O)N[C@@H](CC(C)C)C(=O)N[C@@H](CCC(=O)O)C(=O)N[C@@H](CCC(N)=O)C(=O)NCC(=O)N1CCC[C@H]1C(=O)N[C@@H](CO)C(=O)N[C@@H](CO)C(=O)NCC(=O)N[C@@H](C)C(=O)N1CCC[C@H]1C(=O)N1CCC[C@H]1C(=O)N1CCC[C@H]1C(=O)N[C@@H](CO)C(N)=O)C(C)C [Example 17] (H-Y[dA]EGTFISDYSILLDKK([AEEA-AEEA-γGlu-C18 diacid])AQ[Aib]DFVNWLLEQGPSSGAPPPS-NH2)	> 5000	> 5000	0.0135
